Data published in patent US9833497B2, “Human originated EGF domain proteins and use of the same” (CHENGDU SOURCEBIO LIMITED-LIABILITY COMPANY, priority 2013, dated 2017).

Key:
Assay type in all cases: cell-based
E. coli DH5α = assay: Antibacterial activity: MIC and growth curve against E. coli DH5α in 96-well plate; conditions: minimal inhibitory concentration against E. coli DH5α; 96-well plate, 5×10^5 CFU/mL, 37° C., judged after 8 h
Procedure, shortened: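 Log-phase DH5α (OD600 about 0.5, 37° C, 185 rpm in LB) was pelleted, resuspended in fresh LB and seeded at 5×10^5 CFU/mL with recombinant protein at 50, 25 and 12.5 μg/mL (two-fold series), in triplicate. Plates were shaken at 175 rpm, 37° C, and OD600 was read every 30 min. MIC was the lowest concentration with no growth.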

E. coli BL21 = assay: MIC against Gram-negative bacteria: E. coli BL21; conditions: E. coli BL21; for MIC against E. coli BL21 / MIC (μg/mL) E. coli BL21: 5×10^5 CFU/mL
Procedure, shortened: (§1)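 Bacteria grown in LB at 37° C with shaking to McFarland 0.5, pelleted and resuspended in fresh LB, then seeded at 5×10^5 CFU/mL per well. Purified recombinant human EGF domain proteins were two-fold serially diluted in triplicate and plates shaken at 37° C, 175 rpm. MIC is the lowest protein concentration with no bacterial growth.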

Moraxella catarrhalis = assay: MIC against Gram-negative bacteria: Moraxella catarrhalis; conditions: for MIC against M. catarrhalis / MIC (μg/mL) M. catarrhalis: 5×10^5 CFU/mL
Procedure, shortened: as §1

Aeromonas hydrophila = assay: MIC against Gram-negative bacteria: Aeromonas hydrophila; conditions: for MIC against A. hydrophila / MIC (μg/mL) A. hydrophila: 5×10^5 CFU/mL
Procedure, shortened: as §1

Pseudomonas aeruginosa = assay: MIC against Gram-negative bacteria: Pseudomonas aeruginosa; conditions: for MIC against P. aeruginosa / MIC (μg/mL) P. aeruginosa: 5×10^5 CFU/mL
Procedure, shortened: as §1

Enterobacter cloacae = assay: MIC against Gram-negative bacteria: Enterobacter cloacae; conditions: for MIC against E. cloacae / MIC (μg/mL) E. cloacae: 5×10^5 CFU/mL
Procedure, shortened: as §1

Proteus mirabilis = assay: MIC against Gram-negative bacteria: Proteus mirabilis; conditions: for MIC against P. mirabilis / MIC (μg/mL) P. mirabilis: 5×10^5 CFU/mL
Procedure, shortened: as §1

Klebsiella pneumonia = assay: MIC against Gram-negative bacteria: Klebsiella pneumonia; conditions: for MIC against K. pneumonia / MIC (μg/mL) K. pneumonia: 5×10^5 CFU/mL
Procedure, shortened: as §1

Proteus vulgaris = assay: MIC against Gram-negative bacteria: Proteus vulgaris; conditions: for MIC against P. vulgaris / MIC (μg/mL) P. vulgaris: 5×10^5 CFU/mL
Procedure, shortened: as §1

Serratia marcescens = assay: MIC against Gram-negative bacteria: Serratia marcescens; conditions: for MIC against S. marcescens / MIC (μg/mL) S. marcescens: 5×10^5 CFU/mL
Procedure, shortened: as §1

Citrobacter diversus = assay: MIC against Gram-negative bacteria: Citrobacter diversus; conditions: for MIC against C. diversus / MIC (μg/mL) C. diversus: 5×10^5 CFU/mL
Procedure, shortened: as §1

[1] = M. catarrhalis, 10 h cultivation at 37° C.
[2] = A. hydrophila, 10 h cultivation at 37° C.
[3] = P. aeruginosa, 10 h cultivation at 37° C.
[4] = E. cloacae, 10 h cultivation at 37° C.
[5] = P. mirabilis, 10 h cultivation at 37° C.
[6] = K. pneumonia, 10 h cultivation at 37° C.
[7] = P. vulgaris, 10 h cultivation at 37° C.
[8] = S. marcescens, 10 h cultivation at 37° C.
[9] = C. diversus, 10 h cultivation at 37° C.
[10] = Moraxella catarrhalis, 96-well plate, 37° C., 10 h
[11] = Aeromonas hydrophila, 96-well plate, 37° C., 10 h
[12] = Pseudomonas aeruginosa, 96-well plate, 37° C., 10 h
[13] = Enterobacter cloacae, 96-well plate, 37° C., 10 h
[14] = Proteus mirabilis, 96-well plate, 37° C., 10 h
[15] = Klebsiella pneumonia, 96-well plate, 37° C., 10 h
[16] = Proteus vulgaris, 96-well plate, 37° C., 10 h
[17] = Serratia marcescens, 96-well plate, 37° C., 10 h
[18] = Citrobacter diversus, 96-well plate, 37° C., 10 h

Substance: PRT1004 (LRPSCADSPCRNRATCQDSPQGPRCLCPTGYTGGSCQ; listed as Homo sapiens)
- MIC (E. coli DH5α): 50 mg/L
- MIC (E. coli BL21; 10 h cultivation at 37° C.): 100 mg/L
- MIC (Moraxella catarrhalis; [1]): 25 mg/L
- MIC (Aeromonas hydrophila; [2]): 25 mg/L
- MIC (Pseudomonas aeruginosa; [3]): 50 mg/L
- MIC (Enterobacter cloacae; [4]): 50 mg/L
- MIC (Proteus mirabilis; [5]): 50 mg/L
- MIC (Klebsiella pneumonia; [6]): 12.5 mg/L
- MIC (Proteus vulgaris; [7]): 25 mg/L
- MIC (Serratia marcescens; [8]): 12.5 mg/L
- MIC (Citrobacter diversus; [9]): 12.5 mg/L

Substance: PRT1335 (MTDICKSDNPCHRNANCTTVAPGRTECICQKGYVGDGLTCY; listed as Homo sapiens)
- MIC (E. coli DH5α): 50 mg/L
- MIC against E. coli BL21 (E. coli BL21; 96-well plate, 37° C., 10 h): 12.5 mg/L
- MIC against M. catarrhalis (Moraxella catarrhalis; [10]): 50 mg/L
- MIC against A. hydrophila (Aeromonas hydrophila; [11]): 12.5 mg/L
- MIC against P. aeruginosa (Pseudomonas aeruginosa; [12]): 50 mg/L
- MIC against E. cloacae (Enterobacter cloacae; [13]): 50 mg/L
- MIC against P. mirabilis (Proteus mirabilis; [14]): 25 mg/L
- MIC against K. pneumonia (Klebsiella pneumonia; [15]): 12.5 mg/L
- MIC against P. vulgaris (Proteus vulgaris; [16]): 12.5 mg/L
- MIC against S. marcescens (Serratia marcescens; [17]): 50 mg/L
- MIC against C. diversus (Citrobacter diversus; [18]): 25 mg/L

Substance: PRT1289 (LAEPCRGLQCLHGHCQASGTKGAHCVCDPGFSGELCE; listed as Homo sapiens)
- MIC (E. coli DH5α): 12.5 mg/L
- MIC against E. coli BL21 (E. coli BL21; 96-well plate, 37° C., 10 h): 12.5 mg/L
- MIC against M. catarrhalis (Moraxella catarrhalis; [10]): 50 mg/L
- MIC against A. hydrophila (Aeromonas hydrophila; [11]): 12.5 mg/L
- MIC against P. aeruginosa (Pseudomonas aeruginosa; [12]): 12.5 mg/L
- MIC against E. cloacae (Enterobacter cloacae; [13]): 25 mg/L
- MIC against P. mirabilis (Proteus mirabilis; [14]): 12.5 mg/L
- MIC against K. pneumonia (Klebsiella pneumonia; [15]): 12.5 mg/L
- MIC against P. vulgaris (Proteus vulgaris; [16]): 50 mg/L
- MIC against S. marcescens (Serratia marcescens; [17]): 25 mg/L
- MIC against C. diversus (Citrobacter diversus; [18]): 12.5 mg/L

Substance: PRT29 (PCNCDVHKGFDPNCNKTNGQCHCKEFHYRPRGSDSCLP; listed as Homo sapiens)
- MIC (E. coli DH5α): 25 mg/L
- MIC (μg/mL) E. coli BL21 (E. coli BL21; 96-well plate, 37° C., 10 h): 25 µg/mL
- MIC (μg/mL) M. catarrhalis (Moraxella catarrhalis; [10]): 12.5 µg/mL
- MIC (μg/mL) A. hydrophila (Aeromonas hydrophila; [11]): 25 µg/mL
- MIC (μg/mL) P. aeruginosa (Pseudomonas aeruginosa; [12]): 12.5 µg/mL
- MIC (μg/mL) E. cloacae (Enterobacter cloacae; [13]): 50 µg/mL
- MIC (μg/mL) P. mirabilis (Proteus mirabilis; [14]): 25 µg/mL
- MIC (μg/mL) K. pneumonia (Klebsiella pneumonia; [15]): 25 µg/mL
- MIC (μg/mL) P. vulgaris (Proteus vulgaris; [16]): 50 µg/mL
- MIC (μg/mL) S. marcescens (Serratia marcescens; [17]): 12.5 µg/mL
- MIC (μg/mL) C. diversus (Citrobacter diversus; [18]): 25 µg/mL

Substance: PRT209 (DVDECAQALHDCRPSQDCHNLPGSYQCTCPDGYR; listed as Homo sapiens)
- MIC (E. coli DH5α): 12.5 mg/L
- MIC (μg/mL) E. coli BL21 (E. coli BL21; 10 h cultivation at 37° C.): 12.5 µg/mL
- MIC (μg/mL) M. catarrhalis (Moraxella catarrhalis; [1]): 12.5 µg/mL
- MIC (μg/mL) A. hydrophila (Aeromonas hydrophila; [2]): 12.5 µg/mL
- MIC (μg/mL) P. aeruginosa (Pseudomonas aeruginosa; [3]): 12.5 µg/mL
- MIC (μg/mL) E. cloacae (Enterobacter cloacae; [4]): 12.5 µg/mL
- MIC (μg/mL) P. mirabilis (Proteus mirabilis; [5]): 12.5 µg/mL
- MIC (μg/mL) K. pneumonia (Klebsiella pneumonia; [6]): 25 µg/mL
- MIC (μg/mL) P. vulgaris (Proteus vulgaris; [7]): 50 µg/mL
- MIC (μg/mL) S. marcescens (Serratia marcescens; [8]): 12.5 µg/mL
- MIC (μg/mL) C. diversus (Citrobacter diversus; [9]): 12.5 µg/mL

Substance: PRT1197 (DIDECAAKMHYCHANTVCVNLPGLYRCDCVPGYIRVDDFSCT; listed as Homo sapiens)
- MIC (E. coli DH5α): 25 mg/L
- MIC against E. coli BL21 (E. coli BL21; 96-well plate, 37° C., 10 h): 12.5 mg/L
- MIC against M. catarrhalis (Moraxella catarrhalis; [10]): 12.5 mg/L
- MIC against A. hydrophila (Aeromonas hydrophila; [11]): 50 mg/L
- MIC against P. aeruginosa (Pseudomonas aeruginosa; [12]): 25 mg/L
- MIC against E. cloacae (Enterobacter cloacae; [13]): 12.5 mg/L
- MIC against P. mirabilis (Proteus mirabilis; [14]): 25 mg/L
- MIC against K. pneumonia (Klebsiella pneumonia; [15]): 50 mg/L
- MIC against P. vulgaris (Proteus vulgaris; [16]): 50 mg/L
- MIC against S. marcescens (Serratia marcescens; [17]): 25 mg/L
- MIC against C. diversus (Citrobacter diversus; [18]): 25 mg/L
